Data as given in ChEMBL document CHEMBL1201862, “PubChem BioAssay data set” (2004).
Calls of active or inactive are those of the source.

What was measured:
Assay type in all cases: functional
Protein RecA = target: T1, Protein RecA (Mycobacterium tuberculosis, UniProt P9WHJ3); assay: Fluorescence Cell-Free Homogeneous Dose Retest to Identify Inhibitors of RecA-Intein Splicing Activity. [Related pubchem assays (depositor defined):AID2097, AID2223, AID489010, AID492950]
T1 sequence (P9WHJ3 whole entry): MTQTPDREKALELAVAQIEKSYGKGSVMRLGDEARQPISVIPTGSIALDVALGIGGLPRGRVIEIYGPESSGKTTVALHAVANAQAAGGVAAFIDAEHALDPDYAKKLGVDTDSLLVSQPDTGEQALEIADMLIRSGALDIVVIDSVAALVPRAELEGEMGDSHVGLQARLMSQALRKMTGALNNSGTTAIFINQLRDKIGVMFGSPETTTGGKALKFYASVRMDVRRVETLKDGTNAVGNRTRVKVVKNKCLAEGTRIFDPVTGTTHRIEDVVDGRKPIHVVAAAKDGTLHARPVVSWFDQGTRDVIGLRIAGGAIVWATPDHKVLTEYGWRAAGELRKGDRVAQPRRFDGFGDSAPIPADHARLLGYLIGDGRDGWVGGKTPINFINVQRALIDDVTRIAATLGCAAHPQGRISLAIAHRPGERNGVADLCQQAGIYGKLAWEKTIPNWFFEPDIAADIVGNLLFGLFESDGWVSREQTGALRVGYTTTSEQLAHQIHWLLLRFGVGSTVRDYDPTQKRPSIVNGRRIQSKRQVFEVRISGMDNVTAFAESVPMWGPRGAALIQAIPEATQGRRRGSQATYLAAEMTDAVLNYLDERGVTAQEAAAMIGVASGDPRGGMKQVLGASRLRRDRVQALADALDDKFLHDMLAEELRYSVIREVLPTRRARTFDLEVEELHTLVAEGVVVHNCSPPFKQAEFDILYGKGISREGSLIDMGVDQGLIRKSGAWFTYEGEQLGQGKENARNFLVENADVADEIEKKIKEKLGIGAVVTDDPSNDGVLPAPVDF

[1] = target: Dual specificity protein kinase CLK4 (Homo sapiens, UniProt Q9HAZ1)
Sequence of Dual specificity protein kinase CLK4 (Q9HAZ1 whole entry): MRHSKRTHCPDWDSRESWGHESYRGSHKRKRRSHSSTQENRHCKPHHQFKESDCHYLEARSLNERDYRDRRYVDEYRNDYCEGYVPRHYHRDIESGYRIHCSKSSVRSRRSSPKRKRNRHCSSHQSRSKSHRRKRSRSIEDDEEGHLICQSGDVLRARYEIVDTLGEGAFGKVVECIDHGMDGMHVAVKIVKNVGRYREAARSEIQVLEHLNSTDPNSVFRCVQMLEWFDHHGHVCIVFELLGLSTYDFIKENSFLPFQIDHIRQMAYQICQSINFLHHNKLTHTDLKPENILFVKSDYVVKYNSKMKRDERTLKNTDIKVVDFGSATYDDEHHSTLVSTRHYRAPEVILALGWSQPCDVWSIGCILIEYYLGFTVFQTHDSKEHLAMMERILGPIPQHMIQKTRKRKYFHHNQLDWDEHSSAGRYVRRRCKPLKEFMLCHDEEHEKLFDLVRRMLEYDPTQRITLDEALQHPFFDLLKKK

[2] = target: T2, Serine/threonine-protein kinase PLK4 (Homo sapiens, UniProt O00444);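 further: PLK4 measured as one member of a kinome-wide kinase profiling panel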
T2 sequence (O00444 whole entry): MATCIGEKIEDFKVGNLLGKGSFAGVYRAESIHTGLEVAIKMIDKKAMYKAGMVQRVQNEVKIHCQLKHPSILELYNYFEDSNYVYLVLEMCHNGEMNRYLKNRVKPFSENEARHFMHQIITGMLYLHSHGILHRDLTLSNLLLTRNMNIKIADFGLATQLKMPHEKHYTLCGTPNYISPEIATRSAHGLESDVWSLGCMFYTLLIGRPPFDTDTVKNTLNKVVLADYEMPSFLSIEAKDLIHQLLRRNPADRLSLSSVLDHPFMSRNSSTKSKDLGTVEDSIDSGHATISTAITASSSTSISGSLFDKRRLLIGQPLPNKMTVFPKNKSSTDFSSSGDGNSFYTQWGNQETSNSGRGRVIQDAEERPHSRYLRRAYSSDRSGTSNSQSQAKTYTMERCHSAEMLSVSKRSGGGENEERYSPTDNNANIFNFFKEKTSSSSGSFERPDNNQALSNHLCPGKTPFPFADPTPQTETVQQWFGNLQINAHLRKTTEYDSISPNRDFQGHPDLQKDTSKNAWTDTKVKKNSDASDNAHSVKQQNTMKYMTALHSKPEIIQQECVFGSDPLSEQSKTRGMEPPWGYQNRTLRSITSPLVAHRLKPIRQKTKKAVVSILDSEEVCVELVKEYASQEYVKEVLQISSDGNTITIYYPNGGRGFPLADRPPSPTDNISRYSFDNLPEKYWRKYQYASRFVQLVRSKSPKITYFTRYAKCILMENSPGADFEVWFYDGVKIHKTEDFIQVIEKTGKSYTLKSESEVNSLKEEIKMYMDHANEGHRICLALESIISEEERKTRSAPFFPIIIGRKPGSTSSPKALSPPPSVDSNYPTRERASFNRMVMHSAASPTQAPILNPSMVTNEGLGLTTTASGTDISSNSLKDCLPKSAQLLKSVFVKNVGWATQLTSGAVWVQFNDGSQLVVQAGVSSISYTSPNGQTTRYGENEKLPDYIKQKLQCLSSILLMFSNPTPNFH

[3] = target: T3, Serine/threonine-protein kinase Chk1 (Homo sapiens, UniProt O14757);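 further: measured as one member of a kinome-wide kinase profiling panel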
T3 sequence (O14757 whole entry): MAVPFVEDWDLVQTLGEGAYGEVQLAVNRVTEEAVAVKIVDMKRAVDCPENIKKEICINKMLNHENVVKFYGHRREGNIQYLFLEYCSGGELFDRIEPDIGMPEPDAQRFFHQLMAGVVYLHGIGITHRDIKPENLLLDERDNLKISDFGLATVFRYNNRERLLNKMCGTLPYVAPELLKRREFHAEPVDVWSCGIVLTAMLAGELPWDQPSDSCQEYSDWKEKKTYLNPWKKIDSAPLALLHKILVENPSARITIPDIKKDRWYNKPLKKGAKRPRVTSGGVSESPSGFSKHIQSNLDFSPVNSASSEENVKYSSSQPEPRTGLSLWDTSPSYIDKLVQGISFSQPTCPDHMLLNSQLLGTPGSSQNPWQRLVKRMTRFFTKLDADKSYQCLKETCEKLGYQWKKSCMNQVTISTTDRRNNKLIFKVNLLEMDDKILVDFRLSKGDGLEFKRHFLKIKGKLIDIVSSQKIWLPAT

[4] = target: Cyclin-dependent kinase 8 (Homo sapiens, UniProt P49336); assay: Navigating the Kinome. Panel member name: CDK8
Sequence of Cyclin-dependent kinase 8 (P49336 whole entry): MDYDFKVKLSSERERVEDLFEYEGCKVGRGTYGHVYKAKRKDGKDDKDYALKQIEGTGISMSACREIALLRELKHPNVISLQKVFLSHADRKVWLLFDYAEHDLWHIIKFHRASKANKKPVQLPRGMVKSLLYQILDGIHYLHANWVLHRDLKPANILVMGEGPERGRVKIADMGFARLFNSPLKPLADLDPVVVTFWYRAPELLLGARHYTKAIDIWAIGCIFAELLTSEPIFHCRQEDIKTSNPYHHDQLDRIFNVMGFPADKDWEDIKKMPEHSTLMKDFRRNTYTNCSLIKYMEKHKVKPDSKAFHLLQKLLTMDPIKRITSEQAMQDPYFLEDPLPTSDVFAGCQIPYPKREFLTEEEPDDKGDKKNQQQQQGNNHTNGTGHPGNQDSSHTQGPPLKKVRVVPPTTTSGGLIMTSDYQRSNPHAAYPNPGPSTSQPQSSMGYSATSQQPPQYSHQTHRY

[5] = target: Dual specificity tyrosine-phosphorylation-regulated kinase 1A (Homo sapiens, UniProt Q13627);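 further: measured against DYRK1A as one member of a broad kinome profiling panel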
[6] = target: Casein kinase I isoform alpha (Homo sapiens, UniProt P48729)
Sequence of Casein kinase I isoform alpha (P48729 whole entry, canonical isoform): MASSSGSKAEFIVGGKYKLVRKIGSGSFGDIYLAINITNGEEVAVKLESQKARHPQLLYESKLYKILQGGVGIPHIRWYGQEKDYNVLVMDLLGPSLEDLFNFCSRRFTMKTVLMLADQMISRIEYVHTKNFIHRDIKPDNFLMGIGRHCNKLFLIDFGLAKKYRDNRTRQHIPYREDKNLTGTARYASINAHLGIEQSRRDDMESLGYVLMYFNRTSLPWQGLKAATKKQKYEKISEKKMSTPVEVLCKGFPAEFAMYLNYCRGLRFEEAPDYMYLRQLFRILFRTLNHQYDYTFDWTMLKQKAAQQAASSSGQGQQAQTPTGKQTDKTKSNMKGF

[7] = target: Dual specificity mitogen-activated protein kinase kinase 1 (Homo sapiens, UniProt Q02750); assay: Navigating the Kinome. Panel member name: MAP2K1
Sequence of Dual specificity mitogen-activated protein kinase kinase 1 (Q02750 whole entry): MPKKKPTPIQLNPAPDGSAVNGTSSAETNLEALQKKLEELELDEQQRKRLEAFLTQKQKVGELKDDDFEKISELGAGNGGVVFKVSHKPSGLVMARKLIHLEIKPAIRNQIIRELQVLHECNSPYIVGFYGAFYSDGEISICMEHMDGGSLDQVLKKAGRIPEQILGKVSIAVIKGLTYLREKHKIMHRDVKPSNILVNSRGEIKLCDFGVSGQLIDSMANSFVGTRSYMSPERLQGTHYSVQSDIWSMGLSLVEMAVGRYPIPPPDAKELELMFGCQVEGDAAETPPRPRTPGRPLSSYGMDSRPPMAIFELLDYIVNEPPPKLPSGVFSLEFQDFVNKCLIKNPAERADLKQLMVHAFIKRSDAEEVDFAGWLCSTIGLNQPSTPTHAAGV

[8] = target: Serine/threonine-protein kinase pim-1 (Homo sapiens, UniProt P11309)
Sequence of Serine/threonine-protein kinase pim-1 (P11309 whole entry): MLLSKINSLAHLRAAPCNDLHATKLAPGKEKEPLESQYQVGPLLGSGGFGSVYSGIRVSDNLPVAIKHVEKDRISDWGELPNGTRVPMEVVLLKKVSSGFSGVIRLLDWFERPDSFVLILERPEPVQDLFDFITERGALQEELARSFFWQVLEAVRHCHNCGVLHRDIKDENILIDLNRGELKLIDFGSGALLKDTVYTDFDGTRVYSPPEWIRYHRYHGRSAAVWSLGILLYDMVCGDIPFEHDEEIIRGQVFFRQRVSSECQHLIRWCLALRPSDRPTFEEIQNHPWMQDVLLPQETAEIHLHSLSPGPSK

| SMILES | EC50 (Protein RecA) | Ki [1] | Ki [2] | Ki [3] | Ki [4] | Ki [5] | Ki [6] | Ki [7] | Ki [8] |
| --- | --- | --- | --- | --- | --- | --- | --- | --- | --- |
| COC(=O)CCS(=O)(=O)c1nc(-c2ccccc2)cc(C(F)(F)F)n1 | 4.56 µM (active) | – | – | – | – | – | – | – | – |
| O=C(O)c1ccc(NC2=C(Cl)C(=O)c3ccccc3C2=O)cc1 | 1.22 µM (active) | – | – | – | – | – | – | – | – |
| O=C(O)c1ccc2c3c(ncnc13)-c1ccccc1C2=O | 1.77 µM (active) | – | – | – | – | – | – | – | – |
| Cc1ccc2nccc(NC(=O)Nc3cccc(C(F)(F)F)n3)c2c1 | – | 0.1 µM (active) | > 3.98 µM (inactive) | > 7.94 µM (inactive) | 0.2 µM (active) | > 1 µM (inactive) | > 5.01 µM (inactive) | > 3.16 µM (inactive) | > 3.16 µM (inactive) |
| Cc1nn(C)c2sc3c(=O)[nH]cnc3c12 | – | 3.16 µM (active) | > 39.8 µM (inactive) | > 79.4 µM (inactive) | 25.1 µM (active) | 25.1 µM (active) | 50.1 µM (active) | 100 µM (active) | 31.6 µM (active) |
| Cc1c(/N=C2\C=CC(=O)c3ccccc32)c(=O)n(-c2ccccc2)n1C | 0.768 µM (active) | – | – | – | – | – | – | – | – |
| COc1cc2c(cc1F)C(c1ccccc1Cl)=Nc1c(n[nH]c1C)N2 [RG-1530] | – | 1 µM (active) | 0.0126 µM (active) | 0.501 µM (active) | > 3.98 µM (inactive) | > 0.794 µM (inactive) | > 5.01 µM (inactive) | 2 µM (active) | > 5.01 µM (inactive) |
